# Assay: DL50 (acute lethal dose)
# Conditions: species, route and unit not given
row,Compound,DL₅₀
1,"CC1CN(CCCn2nc3ccccn3c2=O)CCN1c1cccc(Cl)c1 (centres unmarked) [(I) R=R'=R""=H; R'''=CH₃, 2-[3-[4-(3-chlorophenyl)-1-(3-methyl)-piperazinyl]-propyl]-1,2,4-triazole-[4,3-a]-pyridin-3(2H)-one]",≤ 600
2,"O=c1n(CCCN2CCN(c3cccc(Cl)c3)CC2)nc2ccccn12 [trazodone, Trazodone, reference compound]",≥ 200
3,"CC(CCn1nc2ccccn2c1=O)N1CCN(c2cccc(Cl)c2)CC1 (centres unmarked) [(I) R=R""=R'''=H; R'=CH₃, 2-[3-[4-(3-chlorophenyl)-1-piperazinyl]-3-methylpropyl]-1,2,4-triazole-[4,3-a]-pyridin-3(2H)-one]",≤ 300
4,"CC1CN(c2cccc(Cl)c2)CCN1CCCn1nc2ccccn2c1=O (centres unmarked) [(I) R=R'=R'''=H; R""=CH₃, 2-[3-[4-(3-chlorophenyl)-1-(2-methyl)-piperazinyl]-propyl]-1,2,4-triazole-[4,3-a]-pyridin-3(2H)-one]",300
5,"CC(CN1CCN(c2cccc(Cl)c2)CC1)Cn1nc2ccccn2c1=O (centres unmarked) [(I) R'=R""=R'''=H; R=CH₃, 2-[3-[4-(3-chlorophenyl)-1-piperazinyl]-2-methylpropyl]-1,2,4-triazole[4,3-a]-pyridin-3-(2H)-one]",≤ 600

# From patent publication EP0623131B1 (ANGELINI RICERCHE S.p.A. SOCIETA' CONSORTILE, priority 1992, dated 1993)
